System: SARS-CoV-2 (USA-WA1/2020/NR-52281)
Assay: Live native virus infection of A549-hACE2 versus A549-hACE2/TMPRSS2 cells
Assay type: cell-based
Conditions: virus 1 h, then compound

Row | Structure (SMILES) | efficacy against live virus upon overexpression of TMPRSS2
1 | CCOC(=O)C=CC(CC1CCNC1=O)NC(=O)C(Cc1ccccc1)NC(=O)C(N)Cc1ccccc1 (centres unmarked) [SM141] | only a partial loss in efficacy
2 | CCOC(=O)C=CC(CC1CCNC1=O)NC(=O)C(Cc1ccccc1)NC(=O)C(Cc1ccc(F)cc1)NC(=O)OC(C)(C)C (centres unmarked) [SM142] | only a partial loss in efficacy

— PMC9662648 (Journal of the American Chemical Society, 2022)
